According to ChEMBL document CHEMBL4808169, “Discovery of Potent and Fast-Acting Antimalarial Bis-1,2,4-triazines” (J Med Chem, 2021):

What was measured:
[1] = Tmax in Sprague-Dawley rat plasma at 10 mg/kg, po administered via gavage measured up to 24 hrs by LC-MS analysis; format: ADME, organism-based
[2] = Clearance in ABT-treated Sprague-Dawley rat blood at 3 mg/kg, iv by LC-MS analysis; format: ADME, organism-based
[3] = Intrinsic clearance in mouse hepatocytes assessed per million cells by UPLC-MS analysis; format: ADME, cell-based, Hepatocyte; conditions: read-out: CLH
[4] = Drug metabolism in mouse liver microsomes assessed as oxygenated metabolite M+16(2) formation by LC-MS/MS(CID) analysis; format: ADME, Microsome
[5] = Drug metabolism in human hepatocytes assessed as oxygenated metabolite M+16(1) formation by LC-MS/MS(CID) analysis; format: ADME, cell-based, Hepatocyte
[6] = Drug metabolism in Sprague-Dawley rat feces assessed as oxygenated metabolite M+16(1) formation at 3 mg/kg, iv by high-resolution mass spectrometry; format: ADME, organism-based; conditions: in vivo
[7] = Drug metabolism in mouse liver microsomes assessed as oxygenated metabolite M+16(1) formation by LC-MS/MS(CID) analysis; format: ADME, Microsome
[8] = Volume of distribution at steady state in Sprague-Dawley rat plasma at 3 mg/kg, iv measured up to 24 hrs by LC-MS analysis; format: ADME, organism-based; conditions: read-out: Vdss
[9] = Clearance in Swiss mouse plasma at 2.7 mg/kg, iv measured up to 24 hrs by LC-MS analysis; format: ADME, organism-based
[10] = Intrinsic clearance in mouse liver microsomes in presence of NADPH by UPLC-MS analysis; format: ADME, Microsome
[11] = Apparent blood clearance in Sprague-Dawley rat at 3 mg/kg, iv measured up to 24 hrs by LC-MS analysis; format: ADME, organism-based; conditions: read-out: CL(app)
[12] = Drug metabolism in Sprague-Dawley rat plasma assessed as M-69 metabolite formation at 10 mg/kg, po by high-resolution mass spectrometry; format: ADME, organism-based; conditions: in vivo
[13] = Tmax in Swiss mouse at 27 mg/kg, po measured up to 24 hrs by LC-MS analysis; format: ADME, organism-based; conditions: in vivo
[14] = Drug excretion in Sprague-Dawley rat urine 3 mg/kg, iv measured up to 24 hrs by LC-MS analysis; format: ADME, organism-based; conditions: read-out: Drug excretion
[15] = Drug metabolism in human liver microsomes assessed as 3'-propoxy-5,5'-bi(1,2,4-triazin)-3-ol formation by LC-MS/MS(CID) analysis; format: ADME, Microsome
[16] = Toxicity in Swiss mouse assessed as induction of poor posture at 32 mg/kg/day administered for 4 days; format: organism-based; conditions: in vivo, 96 h, time 4 day
[17] = Drug metabolism in rat hepatocytes assessed as N-methyl-2-(3'-propoxy-5,5'-bi(1,2,4-triazin)-3-yloxy)ethanamine formation by LC-MS/MS(CID) analysis; format: ADME, cell-based, Hepatocyte
Plasmodium berghei = assay: Antiplasmodial activity against Plasmodium berghei ANKA infected in po dosed Swiss mouse administered at 2 hrs post infection and measured on day 4 by Peter's 4-day test; format: functional
[18] = Drug metabolism in Sprague-Dawley rat feces assessed as M-32 metabolite formation at 3 mg/kg, iv by high-resolution mass spectrometry; format: ADME, organism-based; conditions: in vivo
[19] = Drug metabolism in human hepatocytes assessed as oxygenated metabolite M+16(2) formation by LC-MS/MS(CID) analysis; format: ADME, cell-based, Hepatocyte
[20] = Drug metabolism in Sprague-Dawley rat feces assessed as oxygenated metabolite M+16(1) formation at 10 mg/kg, po by high-resolution mass spectrometry; format: ADME, organism-based; conditions: in vivo
[21] = Drug metabolism in rat liver microsomes assessed as oxygenated metabolite M+16(1) formation by LC-MS/MS(CID) analysis; format: ADME, Microsome
[22] = Protein binding in rat plasma measured after 6 hrs by LC-MS analysis based equilibrium dialysis method; format: ADME, cell-free; conditions: read-out: PPB (converted)
[23] = Drug metabolism in Sprague-Dawley rat urine assessed as oxygenated metabolite M+16(2) formation at 3 mg/kg, iv by high-resolution mass spectrometry; format: ADME, organism-based; conditions: in vivo
[24] = Drug metabolism in Sprague-Dawley rat urine assessed as oxygenated metabolite M+16(1) formation at 10 mg/kg, po by high-resolution mass spectrometry; format: ADME, organism-based; conditions: in vivo
[25] = Intrinsic clearance in rat hepatocytes assessed per million cells by UPLC-MS analysis; format: ADME, cell-based, Hepatocyte; conditions: read-out: CLH
[26] = Volume of distribution at steady state in Swiss mouse at 2.7 mg/kg, iv measured up to 24 hrs by LC-MS analysis; format: ADME, organism-based; conditions: in vivo, read-out: Vdss
[27] = Drug metabolism in human hepatocytes assessed as oxygenated metabolite N-methyl-2-(3'-propoxy-5,5'-bi(1,2,4-triazin)-3-yloxy)ethanamine oxide formation by LC-MS/MS(CID) analysis; format: ADME, cell-based, Hepatocyte
[28] = Drug metabolism in human liver microsomes assessed as oxygenated metabolite N-methyl-2-(3'-propoxy-5,5'-bi(1,2,4-triazin)-3-yloxy)ethanamine oxide formation by LC-MS/MS(CID) analysis; format: ADME, Microsome
[29] = Apparent permeability across basolateral side to apical side in human Caco2 cells measured over 120 mins by LC-MS analysis; format: ADME, cell-based; conditions: Caco-2
[30] = Clearance in Sprague-Dawley rat plasma at 3 mg/kg, iv measured up to 24 hrs by LC-MS analysis; format: ADME, organism-based
[31] = Drug metabolism in rat liver microsomes assessed as formation of cleavage product M-69 by LC-MS/MS(CID) analysis; format: ADME, Microsome
[32] = Drug metabolism in mouse liver microsomes assessed as formation of cleavage product M-69 in presence of NADPH by LC-MS/MS(CID) analysis; format: ADME, Microsome
[33] = Drug metabolism in Sprague-Dawley rat feces assessed as M-32 metabolite formation at 10 mg/kg, po by high-resolution mass spectrometry; format: ADME, organism-based; conditions: in vivo
[34] = Half life in mouse liver microsomes in presence of NADPH by UPLC-MS analysis; format: ADME, Microsome
[35] = Drug metabolism in mouse hepatocytes assessed as oxygenated metabolite N-methyl-2-(3'-propoxy-5,5'-bi(1,2,4-triazin)-3-yloxy)ethanamine oxide formation by LC-MS/MS(CID) analysis; format: ADME, cell-based, Hepatocyte
Cytochrome P450 2C9 = Cytochrome P450 2C9 (Homo sapiens, UniProt P11712); assay: Inhibition of CYP2C9 in human liver microsomes assessed as reduction in […] activity by . high-pressure liquid chromatography-tandem mass spectrometry; format: ADME
Cytochrome P450 2C9, sequence (P11712 whole entry): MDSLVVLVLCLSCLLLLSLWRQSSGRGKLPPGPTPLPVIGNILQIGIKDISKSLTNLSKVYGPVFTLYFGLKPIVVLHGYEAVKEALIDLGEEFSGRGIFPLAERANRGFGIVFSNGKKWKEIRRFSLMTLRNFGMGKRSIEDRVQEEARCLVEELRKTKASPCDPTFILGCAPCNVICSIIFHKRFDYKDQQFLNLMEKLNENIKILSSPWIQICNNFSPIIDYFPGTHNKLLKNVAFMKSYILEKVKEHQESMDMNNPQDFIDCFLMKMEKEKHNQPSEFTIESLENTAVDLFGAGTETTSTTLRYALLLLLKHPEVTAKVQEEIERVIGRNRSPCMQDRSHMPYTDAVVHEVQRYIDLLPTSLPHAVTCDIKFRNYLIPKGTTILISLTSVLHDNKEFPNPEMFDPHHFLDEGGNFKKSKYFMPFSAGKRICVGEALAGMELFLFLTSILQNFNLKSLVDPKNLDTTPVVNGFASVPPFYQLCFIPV

[36] = Drug metabolism in mouse hepatocytes assessed as 3'-propoxy-5,5'-bi(1,2,4-triazin)-3-ol formation by LC-MS/MS(CID) analysis; format: ADME, cell-based, Hepatocyte
[37] = AUC(0 to infinity) in Sprague-Dawley rat plasma at 3 mg/kg, iv measured up to 24 hrs by LC-MS analysis; format: ADME, organism-based; set-up: route intravenous, dose 3 mg/kg, time <=24
[38] = Drug metabolism in rat hepatocytes assessed as oxygenated metabolite M+16(1) formation by LC-MS/MS(CID) analysis; format: ADME, cell-based, Hepatocyte
[39] = Drug metabolism in mouse hepatocytes assessed as oxygenated metabolite M+16(1) formation by LC-MS/MS(CID) analysis; format: ADME, cell-based, Hepatocyte
Cytochrome P450 3A4 = Cytochrome P450 3A4 (Homo sapiens, UniProt P08684); assay: Inhibition of CYP3A4 in human liver microsomes assessed as reduction in testosterone 6beta-hydroxylation activity by high-pressure liquid chromatography-tandem mass spectrometry; format: ADME
Cytochrome P450 3A4, sequence (P08684 whole entry): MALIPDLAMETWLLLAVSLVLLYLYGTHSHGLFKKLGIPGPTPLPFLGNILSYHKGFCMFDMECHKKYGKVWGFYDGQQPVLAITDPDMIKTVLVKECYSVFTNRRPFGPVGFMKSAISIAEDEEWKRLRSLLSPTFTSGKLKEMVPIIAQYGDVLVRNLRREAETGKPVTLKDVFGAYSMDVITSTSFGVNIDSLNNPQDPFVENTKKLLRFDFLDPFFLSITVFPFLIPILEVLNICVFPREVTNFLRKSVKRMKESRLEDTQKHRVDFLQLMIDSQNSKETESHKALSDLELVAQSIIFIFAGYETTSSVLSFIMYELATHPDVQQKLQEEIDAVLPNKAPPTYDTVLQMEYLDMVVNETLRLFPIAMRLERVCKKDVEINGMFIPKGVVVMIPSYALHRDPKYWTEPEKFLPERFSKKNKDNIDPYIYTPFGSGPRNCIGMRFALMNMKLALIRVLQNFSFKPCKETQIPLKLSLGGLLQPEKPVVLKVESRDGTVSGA

[40] = Metabolic stability of compound in Swiss mouse blood assessed as parent compound loss measured over 4 hrs by LC-MS analysis; format: ADME, tissue-based; conditions: whole blood, read-out: Drug degradation

## CCCOc1nncc(-c2cnnc(OCCN(C)C)n2)n1
[1]
  Tmax: 1.3 h
[2]
  clearance: 232 mL/min/kg
[3]
  hepatocyte CLint: 3.7 µL/min/1e6 cells
[4]
  Drug metabolism: Metabolite_Detected
[5]
  Drug metabolism: Metabolite_Detected
[6]
  Drug metabolism: Metabolite_Detected
[7]
  Drug metabolism: Metabolite_Detected
[8]
  Vd: 2.8 L/kg
[9]
  clearance: 406 mL/min/kg
[10]
  microsomal CLint: 42 µL/min/mg
[11]
  clearance: 205 mL/min/kg
[12]
  Drug metabolism: Metabolite_Detected
[13]
  Tmax: 1 h
[14]
  dose excreted at 24 h: < 3%
[15]
  Drug metabolism: Metabolite_Notdetected
[16]
  Activity: Non-Toxic
[17]
  Drug metabolism: Metabolite_Detected
Plasmodium berghei
  ED50: 1.85 mg/kg/day
  ED90: 4.1 mg/kg/day
[18]
  Drug metabolism: Metabolite_Detected
[19]
  Drug metabolism: Metabolite_Detected
[20]
  Drug metabolism: Metabolite_Detected
[21]
  Drug metabolism: Metabolite_Detected
[22]
  fraction unbound at 6 h: 0.78
[23]
  Drug metabolism: Metabolite_Detected
[24]
  Drug metabolism: Metabolite_Detected
[25]
  hepatocyte CLint: 10 µL/min/1e6 cells
[26]
  Vd: 3.4 L/kg
[27]
  Drug metabolism: Metabolite_Detected
[28]
  Drug metabolism: Metabolite_Detected
[29]
  Papp B→A at 2 h: 46 ×10⁻⁶ cm/s
[30]
  clearance: 249 mL/min/kg
[31]
  Drug metabolism: Metabolite_Detected
[32]
  Drug metabolism: Metabolite_Detected
[33]
  Drug metabolism: Metabolite_Detected
[34]
  half-life: 0.7 h
[35]
  Drug metabolism: Metabolite_Detected
Cytochrome P450 2C9
  IC50: > 20 µM
[36]
  Drug metabolism: Metabolite_Detected
[37]
  AUC(0-inf): 0.658 µM·h
[38]
  Drug metabolism: Metabolite_Detected
[39]
  Drug metabolism: Metabolite_Detected
Cytochrome P450 3A4
  IC50: > 20 µM
[40]
  metabolised at 4 h: 23%
